Reference: patent US20260327211A1, “MODULATORS OF A POTASSIUM CHANNEL AND OF TRPV1 CHANNEL AND USES THEREOF” (Bsense Bio Therapeutics Ltd., priority 2023, published 2026)
Where two headings read alike, the source gives them in different places.

What was measured:
Format in all cases: cell-based
hKv7.2/3 = target: T1, hKv7.2/3 (Homo sapiens, UniProt O43525+O43526); test: Kv7.2/7.3 HCS, FLIPR potassium (thallium) assay, CHO/hKv7.2/3
T1 construct: host or cells: CHO
Experimental: (§1) Cell culture: Chinese hamster ovary (CHO) cell-line cells with a constitutive expression of human Kv7.2/3 channels (B'SYS GmbH, Switzerland) were cultured in F-12 nutrient mixture (Biological Industries) supplemented with 10% fetal bovine serum (Biological Industries) and 1% penicillin-streptomycin (Biological Industries) in a humidified 5% CO2 incubator at 37° C. To maintain the stability of human Kv7.2/7.3 expression antibiotic selection was added (Puromycin 5 μg/ml).
High content screen (HCS) using FLIPR Potassium Assay Kit: A FLIPR Potassium Assay Kit (R8222 FLIPR Potassium Assay Explorer Kits, Molecular Devices) was used with the CHO/hKv7.2/3 cell line to screen molecules against the hKv7.2/7.3 ion channel target. The assay exploits the permeability of thallium ions (Tl+) through potassium (K+) channels. In this assay, Tl+ indicator dye is used to produce a bright fluorescent signal upon the binding to Tl+ conducted through the potassium channels. The intensity of the Tl+ signal is proportional to the number of potassium channels in the open state. Therefore, it provides a functional indication of the potassium channel activity. To activate the voltage-gate potassium channels, the cells were stimulated with a mixture of K+ and Tl+ to depolarize the cell membrane. The fluorescence increase in the assay represents the influx of Tl+ into the cell specifically through the potassium channel, providing a functional read-out of hKv7.2/3 activity using a fluorescent plate reader coupled with injectors used to activate the channels.
According to optimization process to achieve uniform and consistent screening conditions the following protocol was established: Cells were seeded in 384-well, black-walled, clear-bottomed Greiner #781091, at a density of 5000 cells per well 24 hours before the assay conductance and incubated overnight in their normal growth medium. On the experiment day the medium was replaced with HBSS, HEPES, and the test compound/vehicle (0.2% DMSO). Dye solution (prepared according to the manufacturer) was added to the plates, which were incubated for 1.5 h light-protected in room temperature. Tecan Spark reader plate injectors were primed with Tl+(1 mM Tl2SO4) or Tl++K+(1 mM Tl2SO4; 5 mM K2SO4) for channel activation and data correction. […] To calculate EC50 values, the data was fitted to sigmoidal regression using Prism GraphPad. The fitting was constrained to a minimum of 1 and a maximal response of about 3.6 unless a different maximal response could be clearly identified.

rat DRG neurons [1] = test: Rat DRG neurons, capsaicin-evoked action potential firing; details: for Inhibition of capsaicin induced AP response: 100 nM
Text: (§2) rDRGs isolation and primary cell culture: Briefly, rat DRGs from all spinal levels were carefully removed and collected in HBSS on ices, connective tissue of the epineurium surrounding the ganglion was removed and cells were dissociated using Collagenase-II and trypsin dissociation solutions. DRGs were dissociated further, passed through glass Pasteur pipettes to obtain single cells. Then dissociation solution was changed to 5% FBS containing DRG neuronal culture medium and plated onto ECL coated 12 mm cover glass.
(§3) Additional rDRGs experiments were performed using Lonza primary neonatal rat (Sprague Dawley neonatal; P2,3) DRG neurons (R-DRG-505, Lonza) plated and cultured according to the manufacturer.
(§4) Electrophysiology: Cells were used for electrophysiological recording at least 48 hours following rDRG isolation or at least 5 days following cryopreserved rDRG thawing. Round small neurons (20-40 μm in diameter) were selected for electrophysiology recordings, to select for small nociceptive neurons that propagate pain sensation in vivo and that are expressing both Kv7.2/3 and TRPV1 targets. Membrane excitability was monitored using current clamp configuration of the whole-cell patch-clamp technique. Positive current steps of different amplitude were injected (400 ms) to induce spikes trains before and following compound application.
To assess the potency of compounds using DRG neurons, the inhibitory potency for CAP-evoked action potential (AP) trains was measured. For this purpose, DRG membrane potential was continuously measured, and the following protocol was performed:
Cells were perfused with vehicle containing bath solution. After 30 seconds, CAP (1 μM) was applied for 6 seconds to activate TRPV1 and stimulate AP trains.
After 30 seconds of perfusion with bath solution containing only vehicle, perfusion was changed to a bath solution containing compound, and after 3 minutes of compound application, CAP (1 μM) was applied again for 6 seconds to activate TRPV1 and stimulate AP trains.
Cells perfusion was changed back to bath solution containing only vehicle and after 3 minutes of compound washout, CAP (1 μM) was applied again for 6 seconds to activate TRPV1 and stimulate AP trains.
To evaluate the drug/control response, the number of AP spikes induced by CAP following incubation with test compound was divided by the average number of control AP spikes induced without compound, before compound incubation, and following its washout.

rat DRG neurons [2] = test: Rat DRG neurons, current-evoked action potential firing; details: for Inhibition of current induced AP response: 100 nM
Text: as §2, §3, §4

hERG = hERG (Homo sapiens, UniProt Q12809); test: hERG HCS, FLIPR potassium assay, CHO/hERG; set-up: host or cells: CHO; details: at highest concentration shown, Table 1
Experimental: as §1, with “hERG” for “Kv7.2/3”, “the hERG expression” for “the”, “the CHO cell line, antibiotics” for “human Kv7.2/7.3 expression antibiotic”, “selection (G418 […] and Hygromycin 500)” for “selection”, “applied.” for “added (Puromycin 5 μg/ml).”
FLIPR Potassium Assay Kit: The FLIPR Potassium Assay Kit (R8222 FLIPR Potassium Assay Explorer Kits, Molecular Devices) was used with CHO/hERG cell line, for screening compounds against the hERG ion-channel off-target, as detailed hereinabove.
According to optimization process, to achieve a uniform and consistent screening condition of molecules, the following protocol was established: Cells were seeded in 384-well, black-walled, clear-bottomed, at a density of 7,500 cells per well 24 hours before the assay conductance and incubated overnight in their normal growth medium. On the experiment day the medium was replaced with HBSS, HEPES, and the tested compound/vehicle (0.2% DMSO). Dye solution (prepared according to the manufacturer) was added to the wells and plates were incubated for 1.5 hour light-protected in room temperature. The Tecan Spark plate-reader injectors were primed with Tl+(1 mM Tl2SO4) or Tl++K+(1 mM Tl2SO4; 10 mM K2SO4) for channel activation and data correction. […]. To calculate IC50 values, the data was fitted to sigmoidal regression using Prism GraphPad.

hTRPV1 [3] = target: T2, hTRPV1 (Homo sapiens, UniProt Q8NER1); test: TRPV1 HCS, Fluo-8 calcium flux, capsaicin activation, CHO cells expressing hTRPV1
T2 construct: CDS of NM_080704.4, inserted into the multiple cloning site of pcDNA3.1(+); host or cells: CHO/hKv7.2/3
Experimental: as §1, with “with” for “with a”, “hTRPV1” for “Kv7.2/3”, “stable expression” for “stability”, “hTRPV1,” for “human Kv7.2/7.3 expression”, “selection (G418 500 μg/ml)” for “selection”, “applied.” for “added (Puromycin 5 μg/ml).”
High content screen (HCS) using Fluo-8 No Wash Calcium flux Assay Kit: Fluo-8 No Wash Calcium Assay Kit (Abcam, ab112129) was used with CHO stably or transiently expressing TRPV1 to screen compounds against the hTRPV1 ion channel target. The cells were pre-loaded with Fluo-8AM which is membrane permeable. The AM groups of the Fluo-8AM were then being cleaved by intracellular esterase, trapping the Fluo8 in the cell. […] The relative fluorescence signal was calculated following background subtraction, comparing the fluorescence at each time point to its maximal level measured following Ionomycin application in the end.
According to optimization process to achieve uniform and consistent screening condition of molecules the following protocol was established: Cells were seeded in 384-well, black-walled, clear-bottomed, at a density of 5,000 cells per well 24 h before the assay conductance and incubated overnight in their normal growth medium. On the experiment day the medium was replaced in each well with HBSS, HEPES, and compound/vehicle (0.2% DMSO). Dye solution (prepared according to the manufacturer) was added to the wells and plates are incubated for 1.5 h light-protected in room temperature. The Tecan Spark plate reader injectors were then primed with capsaicin and Ionomycin for channel activation and data normalization, respectively. […] To calculate IC50 values, the data was fitted to sigmoidal regression line using Prism GraphPad. The fitting was constrained to a minimum of 0 and a maximal response of about 1 unless a different maximal response could be identified.

hTRPV1 [4] = target: T2, hTRPV1; test: hTRPV1 dual activity electrophysiology, CHO cells co-expressing hKv7.2/3 and hTRPV1; details: with hKv7.2/3 activation
Experimental: Cell culture and DNA transfection: CHO/hKv7.2/3 cells were transfected with hTRPV1 DNA constructs (CDS of NM_080704.4, inserted into the multiple cloning site of pcDNA3.1(+) between the Hind III and BamH I restriction site, Genscript). For CHO transfection, 1×10^6 cells were suspended in a reaction mix (Amaxa™ 4D-Nucleofector™-LONZA) containing 5 μg of hTRPV1 DNA and 0.5 μg of GFP DNA (for cells selection) in a cuvette.
The cells were transformed (Amaxa, DT-133 program for CHO transfection with p-3 Kit) and recovered for 10 minutes at RT in the hood. Then cells were re-suspended in a 10 mL antibiotic (Ab)-free medium suspension and were plated on Gelatin or PLL-coated cover glass in different cell densities. On the next morning, the medium was changed to full medium containing the CHO/hKv7.2/3 cell line selection antibiotics.
Extracellular (Bath) solution: The solution was composed of (in mM): NaCl, 140; KCl, 4; CaCl2, 1.8; MgCl2, 1.2; Glucose, 11; HEPES, 5.5. pH was adjusted to 7.3 with NaOH. Osmolarity was adjusted to 310 mOsm with Sucrose.
Intracellular (Pipette) solution: Pipettes were pulled from borosilicate glass (Warner Instrument Corp, USA) with a resistance of 3-7 MΩ and were filled with internal solution composed of (in mM): KCl, 130; MgCl2, 1; K ATP, 5; EGTA, 5; HEPES, 10. pH was adjusted to 7.3 with KOH. Osmolarity was adjusted to 290 mOsm with Sucrose.
A programmable valve-linked pressurized perfusion system was used for local application of compounds nearby the cell recorded in a consistent flow rate of 2-3 mL/minute. Series resistance was corrected and data were sampled at 5 kHz and low pass filtered at 2.4 kHz using MultiClamp 700B amplifier with pCLAMP11 software (Molecular Devices, USA).
At least 48 hours following cell transfection and plating, cells were recorded to assess the TRPV1 dual activity. Membrane potential was held at −90 mV. To measure the inhibitory effects of the tested compounds on hTRPV1 dual activity the following protocol was performed:
Cells were perfused with vehicle-only containing bath solution. After 30 seconds, a single −40 mV 1.5 second step was applied for Kv7.2/3 activation and 30 seconds later capsaicin (1 μM) was applied for 6 seconds to activate the TRPV1.
Cells perfusion was changed to a compound-containing bath solution, and after 2 minutes and 30 seconds of compound application, a single −40 mV 1.5 second step was applied for Kv7.2/3 activation and 30 seconds later capsaicin (1 μM) was applied for 6 seconds to activate the TRPV1.
Cells perfusion was thereafter changed back to vehicle only-containing bath solution. After 30 seconds, a single −40 mV 1.5 step was applied for Kv7.2/3 activation and 30 seconds later capsaicin (1 μM) was applied for 6 seconds to activate the TRPV1 followed by a capsaicin wash out.
The drug current response, when capsaicin was injected following 3 minutes of pre-incubation with the test compound, was divided by the averaged control currents, induced without compound, before compound incubation and following its washout, to evaluate the drug/control response.

CHO-K1 cells = test: In vitro micronucleus; details: Plate 3 without S9, 24 hours
Experimental: The micronucleus assay was performed according to the regulatory guidelines. In brief, CHO-K1 cells were plated at 10000 cells/well in 3 plates and incubated In CHO-K1 growth medium (containing F12K, 10% FBS and 1% PS) overnight.
As a control for the S9 treatment, plate No. 1, cells were treated with cyclophosphamide as a positive control, for 3 hours. For plate No. 2, without S9 treatment, cells were treated with mitomycin C as a positive control, compounds for 3 hours, and for plate No. 3, without S9 treatment, cells were treated with bleomycin sulfate as a positive control continuously for 24 hours.
On the following day, 6 μg/mL of cytochalasin B were added to each well and plates were further incubated overnight. In the day after medium was replaced with a combined 10 μg/mL Hoechst dye solution and 0.5 μM calcein-AM in 100 μL warm DPBS for 30 minutes and the plates were scanned using CQ1 high-content analysis system.

T2 sequence (Q8NER1 whole entry): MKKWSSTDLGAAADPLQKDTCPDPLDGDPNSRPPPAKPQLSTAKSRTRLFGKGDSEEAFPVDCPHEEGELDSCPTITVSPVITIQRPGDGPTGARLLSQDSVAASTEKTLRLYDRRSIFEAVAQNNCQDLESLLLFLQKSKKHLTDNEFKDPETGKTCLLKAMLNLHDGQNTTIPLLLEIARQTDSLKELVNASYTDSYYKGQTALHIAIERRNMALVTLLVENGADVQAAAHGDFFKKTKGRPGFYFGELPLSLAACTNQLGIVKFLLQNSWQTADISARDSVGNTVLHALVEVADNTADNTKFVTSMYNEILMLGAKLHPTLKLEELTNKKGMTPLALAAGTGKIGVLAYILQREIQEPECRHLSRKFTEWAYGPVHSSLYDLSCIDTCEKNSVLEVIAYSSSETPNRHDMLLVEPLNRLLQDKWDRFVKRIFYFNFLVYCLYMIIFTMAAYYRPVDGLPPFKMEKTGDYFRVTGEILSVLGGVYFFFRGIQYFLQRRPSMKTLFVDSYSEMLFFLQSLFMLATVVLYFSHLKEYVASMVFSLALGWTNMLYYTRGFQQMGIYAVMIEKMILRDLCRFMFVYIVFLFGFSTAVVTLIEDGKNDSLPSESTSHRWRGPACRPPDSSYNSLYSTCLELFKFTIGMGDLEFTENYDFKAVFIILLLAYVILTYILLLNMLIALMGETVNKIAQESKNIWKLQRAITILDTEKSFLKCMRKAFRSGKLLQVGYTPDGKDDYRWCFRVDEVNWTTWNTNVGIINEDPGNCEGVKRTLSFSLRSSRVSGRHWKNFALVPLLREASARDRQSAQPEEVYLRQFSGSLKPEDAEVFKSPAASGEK
T1 sequence (O43525 whole entry): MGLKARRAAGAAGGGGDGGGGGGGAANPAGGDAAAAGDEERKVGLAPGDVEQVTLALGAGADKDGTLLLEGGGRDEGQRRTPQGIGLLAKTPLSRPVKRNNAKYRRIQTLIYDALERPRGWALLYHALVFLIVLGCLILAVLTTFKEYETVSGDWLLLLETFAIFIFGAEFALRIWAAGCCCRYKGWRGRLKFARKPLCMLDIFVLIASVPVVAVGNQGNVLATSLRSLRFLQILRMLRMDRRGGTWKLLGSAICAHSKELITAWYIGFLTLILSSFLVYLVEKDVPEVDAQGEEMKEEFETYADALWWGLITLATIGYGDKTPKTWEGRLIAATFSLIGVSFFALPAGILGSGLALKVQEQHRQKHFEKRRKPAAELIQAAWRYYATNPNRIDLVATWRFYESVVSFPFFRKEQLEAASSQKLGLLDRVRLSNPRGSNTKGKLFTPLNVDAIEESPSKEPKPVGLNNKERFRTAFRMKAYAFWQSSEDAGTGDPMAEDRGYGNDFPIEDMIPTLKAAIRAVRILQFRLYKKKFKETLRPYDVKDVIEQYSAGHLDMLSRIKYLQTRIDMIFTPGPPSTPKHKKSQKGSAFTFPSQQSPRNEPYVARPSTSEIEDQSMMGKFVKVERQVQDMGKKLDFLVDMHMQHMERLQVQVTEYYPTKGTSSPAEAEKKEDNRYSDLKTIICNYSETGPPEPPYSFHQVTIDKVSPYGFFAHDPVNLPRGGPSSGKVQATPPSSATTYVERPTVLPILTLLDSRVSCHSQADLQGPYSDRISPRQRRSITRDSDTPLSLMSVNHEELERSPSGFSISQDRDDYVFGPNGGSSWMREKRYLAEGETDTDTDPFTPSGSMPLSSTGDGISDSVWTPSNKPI
T1 sequence (O43526 whole entry): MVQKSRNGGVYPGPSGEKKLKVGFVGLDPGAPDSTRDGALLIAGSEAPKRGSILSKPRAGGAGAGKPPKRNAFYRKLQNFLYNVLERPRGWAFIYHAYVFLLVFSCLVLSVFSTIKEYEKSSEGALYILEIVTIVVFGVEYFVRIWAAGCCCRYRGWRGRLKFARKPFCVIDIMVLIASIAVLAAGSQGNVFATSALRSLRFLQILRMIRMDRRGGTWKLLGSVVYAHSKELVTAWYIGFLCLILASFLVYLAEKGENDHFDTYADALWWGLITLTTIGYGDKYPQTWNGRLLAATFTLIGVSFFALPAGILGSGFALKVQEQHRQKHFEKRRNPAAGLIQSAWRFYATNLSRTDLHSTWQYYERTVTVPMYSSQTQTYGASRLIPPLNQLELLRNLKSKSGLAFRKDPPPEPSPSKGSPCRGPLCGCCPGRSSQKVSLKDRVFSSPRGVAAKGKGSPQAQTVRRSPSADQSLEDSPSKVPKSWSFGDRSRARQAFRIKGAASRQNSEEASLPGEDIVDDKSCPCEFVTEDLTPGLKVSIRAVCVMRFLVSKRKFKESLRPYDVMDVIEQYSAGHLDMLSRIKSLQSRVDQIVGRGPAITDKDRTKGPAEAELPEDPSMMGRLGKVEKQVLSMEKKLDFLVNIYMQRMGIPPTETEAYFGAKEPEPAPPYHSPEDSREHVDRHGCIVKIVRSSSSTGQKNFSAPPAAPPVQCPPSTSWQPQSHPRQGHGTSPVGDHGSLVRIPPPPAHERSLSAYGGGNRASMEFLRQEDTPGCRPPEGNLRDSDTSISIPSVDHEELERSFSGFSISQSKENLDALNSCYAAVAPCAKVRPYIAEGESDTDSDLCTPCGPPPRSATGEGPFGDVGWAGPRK
Chain of hERG (Q12809 whole entry): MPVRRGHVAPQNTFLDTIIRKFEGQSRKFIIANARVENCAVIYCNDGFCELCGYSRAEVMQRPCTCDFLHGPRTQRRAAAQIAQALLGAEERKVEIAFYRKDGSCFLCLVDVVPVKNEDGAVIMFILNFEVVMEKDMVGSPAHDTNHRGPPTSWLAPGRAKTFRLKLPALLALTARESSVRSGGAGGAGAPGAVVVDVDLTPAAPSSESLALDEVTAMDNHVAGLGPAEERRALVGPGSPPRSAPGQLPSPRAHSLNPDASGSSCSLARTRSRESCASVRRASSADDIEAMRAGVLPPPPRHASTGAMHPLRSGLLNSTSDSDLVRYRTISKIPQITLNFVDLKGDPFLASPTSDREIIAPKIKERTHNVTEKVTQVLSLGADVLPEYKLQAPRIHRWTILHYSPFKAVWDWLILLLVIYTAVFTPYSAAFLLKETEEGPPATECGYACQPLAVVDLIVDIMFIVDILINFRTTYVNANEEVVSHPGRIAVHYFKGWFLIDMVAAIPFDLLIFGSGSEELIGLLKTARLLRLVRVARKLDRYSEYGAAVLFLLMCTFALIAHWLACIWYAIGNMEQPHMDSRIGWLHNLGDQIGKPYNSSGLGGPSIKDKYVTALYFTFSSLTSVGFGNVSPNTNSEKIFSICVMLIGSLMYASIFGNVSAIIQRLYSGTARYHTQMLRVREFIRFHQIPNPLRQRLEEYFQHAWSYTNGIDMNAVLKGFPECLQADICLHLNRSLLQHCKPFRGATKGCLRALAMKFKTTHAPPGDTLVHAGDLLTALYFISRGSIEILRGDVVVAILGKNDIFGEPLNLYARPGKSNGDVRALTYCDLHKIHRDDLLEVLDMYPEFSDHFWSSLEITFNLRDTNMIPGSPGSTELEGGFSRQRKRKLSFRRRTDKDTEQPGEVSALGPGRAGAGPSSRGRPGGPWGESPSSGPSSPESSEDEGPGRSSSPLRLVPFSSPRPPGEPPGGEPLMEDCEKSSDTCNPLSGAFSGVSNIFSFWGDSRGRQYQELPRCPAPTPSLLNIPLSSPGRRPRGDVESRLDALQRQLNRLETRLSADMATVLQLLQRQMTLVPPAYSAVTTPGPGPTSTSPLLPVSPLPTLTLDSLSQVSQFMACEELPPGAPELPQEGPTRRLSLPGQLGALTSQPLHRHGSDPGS

## CC(C)c1cc(Cl)cc(Cl)c1C(O)c1ccc(F)c(CC(=O)NCC2(O)CCC2)c1 (racemic) [Compound 533 racemic]
hKv7.2/3; Table 1, read-out: Kv7.2/7.3 IC50
  EC50: 1.5 µM
Rat DRG neurons [1]
  Inhibition of capsaicin induced AP response: highly potentiating capsaicin induced AP inhibition
Rat DRG neurons [2]
  Inhibition of current induced AP response: reduced current induced AP inhibition
hERG
  hERG IC50 (inhibition in parentheses): 0%

## CC(C)c1cc(Cl)cc(Cl)c1C(O)c1ccc(F)c(CC(=O)NCC2(O)CCC2)c1 (single isomer, unassigned) [Compound 533p2]
hTRPV1 [3]
  TRPV1 modulation (words): activates hTRPV1
hTRPV1 [3]; listed as 533P2
  TRPV1 modulation (words): activating TRPV1
hKv7.2/3
  Kv7.2/3 activation (words): higher
hKv7.2/3; listed as 533P2
  Kv7.2/3 activation (words): more potent activation of Kv7.2/3
Rat DRG neurons [1]; 0.1 µM
  Inhibition of capsaicin induced AP response: facilitated
Rat DRG neurons [1]; listed as 533P2, 0.1 µM
  Inhibition of capsaicin induced AP response: potentiates capsaicin induced AP
Rat DRG neurons [2]; 0.1 µM
  Inhibition of current induced AP response: inhibits the current-evoked rat DRGs spiking
Rat DRG neurons [2]; listed as 533P2, 0.1 µM
  Inhibition of current induced AP response: inhibits current induced AP

## CC(C)(C)c1ccc(/C=C/C(=O)Nc2ccc3c(c2)OCCO3)cc1 [AMG9810, reference compound]
hTRPV1 [4]
  hTRPV1 inhibition potency, Kv7.2/3 co-expressed and activated: failure to gain TRPV1-inhibition potency
Rat DRG neurons [1]; 50 nM
  Inhibition of capsaicin evoked firing: about 50%
Rat DRG neurons [2]; 50 nM
  Current evoked response: remains unchanged

## Bleomycin sulfate [reference compound]
CHO-K1 cells
  Micronucleus response Absolute MEC: >28 µM
CHO-K1 cells; read-out: Cytotoxicity (%) Absolute EC50
  CC50: 1.59 µM
